PubChem BioAssay (NCI)
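Following 48 hours of exposure in 96-well plates, responses at five concentrations were used to interpolate endpoints linearly. TGI denotes the concentration required for complete inhibition of growth.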

Columns and labels:
Assay in all cases: growth of human tumour cells (NCI), 48 h
[1] = tested on: 786-0 renal
[2] = tested on: A498 renal
[3] = tested on: A549 NSCLC
[4] = tested on: ACHN renal
[5] = tested on: BT-549 breast
[6] = tested on: CAKI-1 renal
[7] = tested on: CCRF-CEM leukemia
[8] = tested on: COLO 205 colon
[9] = tested on: DU-145 prostate
[10] = tested on: EKVX NSCLC
[11] = tested on: HCT-116 colon
[12] = tested on: HCT-15 colon
[13] = tested on: HL-60(TB) leukemia
[14] = tested on: HOP-92 NSCLC
[15] = tested on: HS 578T breast
[16] = tested on: HT29 colon
[17] = tested on: IGROV1 ovarian
[18] = tested on: K-562 leukemia
[19] = tested on: KM12 colon
[20] = tested on: LOX IMVI melanoma
[21] = tested on: M14 melanoma
[22] = tested on: MALME-3M melanoma
[23] = tested on: MDA-MB-231 breast
[24] = tested on: MDA-MB-435
[25] = tested on: MDA-N
[26] = tested on: MOLT-4 leukemia
[27] = tested on: NCI-H226 lung
[28] = tested on: NCI-H23 lung
[29] = tested on: NCI-H460 lung
[30] = tested on: NCI-H522 lung
[31] = tested on: NCI/ADR-RES ovarian
[32] = tested on: OVCAR-3 ovarian
[33] = tested on: OVCAR-4 ovarian
[34] = tested on: OVCAR-5 ovarian
[35] = tested on: OVCAR-8 ovarian
[36] = tested on: PC-3 prostate
[37] = tested on: RXF 393 renal
[38] = tested on: SF-268 CNS
[39] = tested on: SF-295 CNS
[40] = tested on: SF-539 CNS
[41] = tested on: SK-MEL-2 melanoma
[42] = tested on: SK-MEL-28 melanoma
[43] = tested on: SK-MEL-5 melanoma
[44] = tested on: SK-OV-3 ovarian
[45] = tested on: SN12C renal
[46] = tested on: SNB-19 CNS
[47] = tested on: SNB-75 CNS
[48] = tested on: SR leukemia
[49] = tested on: SW-620 colon
[50] = tested on: T-47D breast
[51] = tested on: TK-10 renal
[52] = tested on: U251 CNS
[53] = tested on: UACC-257 melanoma
[54] = tested on: UACC-62 melanoma
[55] = tested on: UO-31 renal
[56] = tested on: HCC-2998 colon
[57] = tested on: HOP-62 NSCLC
[58] = tested on: MCF7 breast
[59] = tested on: RPMI-8226 leukemia

CCSC12CC3c4cccc5c4C(CN5C(=O)c4ccccc4)CC3(O1)N(C)C2=O (stereo not drawn)
TGI [1]: > 100 µM
TGI [2]: > 100 µM
TGI [3]: > 100 µM
TGI [4]: > 100 µM
TGI [5]: 80.7 µM
TGI [6]: > 100 µM
TGI [7]: > 100 µM
TGI [8]: 75 µM
TGI [9]: > 100 µM
TGI [10]: 83.4 µM
TGI [11]: > 100 µM
TGI [12]: > 100 µM
TGI [13]: 55.7 µM
TGI [14]: 71.9 µM
TGI [15]: > 100 µM
TGI [16]: > 100 µM
TGI [17]: > 100 µM
TGI [18]: > 100 µM
TGI [19]: > 100 µM
TGI [20]: > 100 µM
TGI [21]: > 100 µM
TGI [22]: 88.3 µM
TGI [23]: > 100 µM
TGI [24]: > 100 µM
TGI [25]: 81.6 µM
TGI [26]: 62.6 µM
TGI [27]: > 100 µM
TGI [28]: 69.8 µM
TGI [29]: > 100 µM
TGI [30]: 64.7 µM
TGI [31]: > 100 µM
TGI [32]: > 100 µM
TGI [33]: > 100 µM
TGI [34]: > 100 µM
TGI [35]: > 100 µM
TGI [36]: 81.2 µM
TGI [37]: > 100 µM
TGI [38]: > 100 µM
TGI [39]: > 100 µM
TGI [40]: > 100 µM
TGI [41]: 89.5 µM
TGI [42]: > 100 µM
TGI [43]: 28.9 µM
TGI [44]: > 100 µM
TGI [45]: 62.9 µM
TGI [46]: > 100 µM
TGI [47]: > 100 µM
TGI [48]: 77.6 µM
TGI [49]: > 100 µM
TGI [50]: > 100 µM
TGI [51]: > 100 µM
TGI [52]: > 100 µM
TGI [53]: > 100 µM
TGI [54]: 67.9 µM
TGI [55]: > 100 µM

CCOC(=O)c1ccc(Nc2cnc3ccc(C(F)(F)F)cc3n2)cc1
TGI [1]: 26.8 µM
TGI [2]: 33.9 µM
TGI [3]: 32.3 µM
TGI [4]: 28.5 µM
TGI [5]: 34 µM
TGI [6]: 30.7 µM
TGI [7]: 36.6 µM
TGI [8]: 29.3 µM
TGI [9]: 47.7 µM
TGI [10]: 58.4 µM
TGI [56]: 26.7 µM
TGI [11]: 28 µM
TGI [12]: 35.5 µM
TGI [13]: 37.7 µM
TGI [57]: 46.6 µM
TGI [14]: 23.5 µM
TGI [15]: 59.1 µM
TGI [16]: 24.1 µM
TGI [17]: 30.4 µM
TGI [18]: 53.7 µM
TGI [19]: 25.8 µM
TGI [20]: 29.3 µM
TGI [21]: > 100 µM
TGI [22]: 79.2 µM
TGI [58]: 67.1 µM
TGI [23]: 43.7 µM
TGI [24]: 61.8 µM
TGI [25]: 44.6 µM
TGI [26]: 24.5 µM
TGI [27]: 35.9 µM
TGI [28]: 28.5 µM
TGI [29]: 27.2 µM
TGI [31]: 30.8 µM
TGI [32]: 44.8 µM
TGI [33]: 32 µM
TGI [34]: 74.7 µM
TGI [35]: 26 µM
TGI [36]: 55.5 µM
TGI [59]: 71.1 µM
TGI [37]: 25.8 µM
TGI [38]: 34 µM
TGI [39]: 50.6 µM
TGI [40]: 63.4 µM
TGI [41]: 33.8 µM
TGI [42]: 43 µM
TGI [43]: 31.2 µM
TGI [44]: > 100 µM
TGI [45]: 27.2 µM
TGI [46]: 84.7 µM
TGI [47]: 42.8 µM
TGI [48]: 52.6 µM
TGI [49]: 31.7 µM
TGI [50]: 46.7 µM
TGI [51]: 26.9 µM
TGI [52]: 31.8 µM
TGI [53]: 56 µM
TGI [54]: 33.5 µM
TGI [55]: 48.6 µM
